The values below come from patent publication US20220333077A1, “Product for Therapy and Methods” (The University of Bristol, priority 2019, published 2022).

Structures are written as SMILES. Entries after “also recorded” stand apart in the source; their conditions may differ. Residues, ends and D or L forms follow the SMILES beside them. *: point of attachment. Cbz = O=C(OCc1ccccc1)*

Series [1] addresses T1, thymidine phosphorylase (TP) (Homo sapiens, UniProt P19971).
T1 construct: expressed in transfected cells; host or cells: CD34+-derived cultured human erythroid progenitors (cTP) and BEL-A erythroid cells (bTP), lentiviral XLG3 vector
T1 sequence (P19971 11-482): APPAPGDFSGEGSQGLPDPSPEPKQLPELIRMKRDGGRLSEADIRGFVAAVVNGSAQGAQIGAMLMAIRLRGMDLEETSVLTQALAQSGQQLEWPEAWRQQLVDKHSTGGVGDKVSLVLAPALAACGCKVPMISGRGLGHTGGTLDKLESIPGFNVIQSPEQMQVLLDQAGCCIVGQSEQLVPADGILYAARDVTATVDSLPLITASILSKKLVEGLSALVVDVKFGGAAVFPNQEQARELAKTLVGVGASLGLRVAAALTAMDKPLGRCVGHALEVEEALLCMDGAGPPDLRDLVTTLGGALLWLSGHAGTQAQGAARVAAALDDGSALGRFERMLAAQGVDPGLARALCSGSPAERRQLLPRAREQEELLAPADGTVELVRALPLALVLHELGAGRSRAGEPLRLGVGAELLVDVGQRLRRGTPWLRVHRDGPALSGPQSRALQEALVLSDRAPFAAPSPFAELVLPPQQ
The experiment in a line: Thymidine supplementation of differentiation media, TP enzyme abundance in reticulocytes. It is filed as cell-based. The source says: After further examination of the molecular human TP structure we observed that the 2 ubiquitination sites that correspond with murine TP, would only be available for ubiquitination in the absence of substrate.
Reticulocytes were identified by gating upon Hoechst-negative population.

Series [2] concerns in vitro cultured erythroid cells. The class given is cell-based. The conditions noted are these: 0.5 mM thymidine added early, e.g. Day 0 of differentiation; data not shown.
Series [3] deals with thymidine phosphorylase (TP). The experiment in a line: Effect of degradation inhibitors on TP expression in differentiating cTP cells. The conditions noted are these: day 14 cTP cells, 24 hours incubation; 10 μM leupeptin or 5 μM MG132. The class given is cell-based, human. The source says:
The substantial loss of TP enzyme expression during differentiation could mean that TP is being actively degraded during terminal differentiation. To test whether exogenous TP degradation during differentiation is due to ubiquitination or lysosomal degradation, we subjected the day 14 (orthochromatic erythrocytes) cTP cells to an ubiquitination inhibitor MG132, or a lysosomal degradation inhibitor, leupeptin (Tsubuki, S., et al., J Biochem, 1996, 119(3), p. 572-6; Hershko, A. and A. Ciechanover, Annu Rev Biochem, 1982, 51, p. 335-64). TP expression was first measured on day 14 and then 24 hours after incubation with inhibitors or the vehicle control.
As previously described (Griffiths, R. E., et al., Blood, 2012. 119(26), p. 6296-306), CD34+ haemopoietic stem cells (HSC) here isolated from human blood donor mononuclear cells or from thawed cryopreserved cord blood units by magnetic bead separation according to manufacturer's instructions (Miltenyi Biotech Ltd, Bisley UK). CD34+ cells were grown at a density of 2×10^5 cells/ml using a base medium consisting of IMDM (Source BioScience) containing 3% (v/v) AB Serum, 2 mg/ml HSA, 10 μg/ml Insulin, 3U/ml heparin, 500 μg/ml transferrin and 3U/ml Epo. […] Cells where fixed with paraformaldehyde and analysed by flow cytometry.

A further series relates to glutamine synthase. The experiment in a line: MG132 effect on glutamine synthase levels in GS (over)expressing erythroblasts, flow cytometry. The class given is cell-based, human. The conditions noted are these: MG132 added at day 15, expression measured at day 19. The source says: To investigate the degree to which exogenous enzyme expression is retained during erythropoiesis, four different enzymes were expressed in CD34+ haematopoietic stem cells (using lentivirus) and subsequently differentiated to reticulocytes: glutamine synthase (FIG. 8), adenosine deaminase (FIG. 9), L-asparaginase (FIG. 10), and uricase (FIG. 11). The exogenous proteins Uricase (a bacterial enzyme), human L-asparaginase (ASP) and human […] (ADA) were tagged with c-Myc to facilitate measurement of expression during differentiation by flow cytometry and western blot. GAPDH is an endogenous enzyme which was also blotted for in some cases. For human glutamine synthetase (GS) an antibody specific for this protein was used to detect expression by flow cytometry. The bar graphs in FIGS. 8-11 show expression of indicated enzymes during differentiation as assessed by flow cytometry across two different cultures. Western blots illustrate expression of the enzymes in in vitro derived reticulocytes. To explore whether ubiquitination enhances GS enzyme retention at the end of the culture, MG132 (a ubiquitin inhibitor) was added at day 15 to the GS (over)expressing erythroblasts. Expression was measured at day 19 by flow cytometry.
On the technique in general: Flow cytometry measures light scatter and fluorescence of single cells or particles in a stream.

Regarding `Cc1cn([C@H]2C[C@H](O)[C@@H](CO)O2)c(=O)[nH]c1=O` [thymidine], the “TP enzyme abundance compared to standard differentiation media” value was “doubled” in series [1] (bTP reticulocytes, 0.5 mM thymidine daily from day 6 (polychromatic erythroblast stage)) and “doubled” in series [1] (cTP reticulocytes, 0.5 mM thymidine daily from day 14 (polychromatic erythroblast stage)). In addition, in series [1] (thymidine added to the media, un-mutated ubiquitination site), the “concentration of active TP in the reticulocyte” value was “roughly double”. For the same compound, the “cell death and differentiation” value in series [2] was “increase in cell death and inhibition of differentiation”.
Take `CC(=O)N[C@@H](CC(C)C)C(=O)N[C@@H](CC(C)C)C(=O)N[C@H](C=O)CCCNC(=N)N` [leupeptin]: the “effect on TP degradation during differentiation” value in series [3] is given as “did not impair degradation”.
`CC(C)C[C@@H](C=O)NC(=O)[C@H](CC(C)C)NC(=O)[C@H](CC(C)C)NC(=O)OCc1ccccc1` [MG132] (Cbz-Leu-Leu-Leu-aldehyde): the “effect on TP degradation during differentiation” value in series [3] is “protected TP from degradation during differentiation; also recorded: inhibition of degradation was observed”. For the same compound, in the series on glutamine synthase, the “glutamine synthase levels in reticulocytes” value is given as “increases glutamine synthase levels in reticulocytes”.
